# From patent publication US7732185B2, “Plasmid having response to dioxins, transgenic cell for measuring dioxins, dioxins sensing method and biosensor using the same” (priority 2004, dated 2010)
# Experiments:
# Format in all cases: cell-based, mouse
# [1] = system: aryl hydrocarbon receptor (AhR); assay: DRESSA method: SEAP protein activity in conditioned medium of HeDS cells; conditions: for induction of SEAP protein activity compared with DMSO control: HeDS cells stimulated by 1 μM
# Experimental: Each cell clump is treated with trypsin to be removed, transferred to a 96-well culture plate every two wells, and cultured for one week continuously (S5). After the cells become confluent, the culture medium of each well is exchanged with 100 μl of α-MEM containing 1% FBS, and the cells are cultured for 24 hours in the presence or absence of 10 pM TCDD. Then, using 5 μl of the conditioned medium, a predetermined SEAP assay is performed to establish HeDS cells that react with a low concentration of dioxin with the highest sensitivity, and the cells are used for a dioxins sensing bioassay (S6). In this specification, the bioassay method is referred to as DRE-based Sensing of dioxin via Secreted Alkaline phosphatase (hereinafter, abbreviated as the DRESSA method).
# Further, AhR14 forms a complex with Arnt15 that is a coactivator, enters the nuclear, and is combined with MMTV-DRE11 to activate. As a result, transcription of downstream SEAP gene 12 is promoted, messenger RNA 16 is produced and translated to protein 18 with ribosome 17, and the protein is promptly secreted outside the cell as a SEAP protein. Accordingly, by measuring the activity of the SEAP protein in the conditioned medium, it is possible to determine a level of dioxins to which the cells are exposed. First, HeDS cells with a concentration of 2×10^4/well are seeded in each well of a 96-well culture plate. As a culture medium, 100 μl of A-MEM containing […] is filled into each well (S1). After the cells are cultured for 24 hours to be fixed to the bottom of each well, the culture medium is exchanged, and 1 μl of a liquid sample containing TCDD is added (S2). After culturing for 24 hours, the conditioned medium is sampled every 5 μl (S3), and the SEAP protein activity is measured by procedures as described below.
# (§1) The SEAP protein activity in the conditioned medium is determined as described below. To 5 μl of the conditioned medium is added 15 μl of buffer, the resultant is incubated at 65° C. for 30 minutes, and endogenous alkaline phosphatase activity is inactivated. Added further is 20 μl of buffer containing L-homoarginine that is an inhibitor of endogenous alkaline phosphatase, and the resultant is kept standing for 5 minutes. Then, 15 μl of substrate CSPD is added thereto, the resultant is kept standing at a dark place for 30 minutes, and the degree of chemical emission is measured by a luminometer.
# [2] = system: aryl hydrocarbon receptor (AhR); assay: SEAP reporter plasmid comparison of sensor sequences (DRE, MMTV-DRE, MMTV) in Hepa-1c1c7 cells stimulated by TCDD
# Experimental: SEAP reporter plasmids having MMTV-DRE or only DRE as a sensor sequence were prepared, and each of the plasmids was gene-introduced to a Hepa-1c1c7 cell. In addition, details of gene introduction will be described later. The cells were stimulated by TCDD, and increases in SEAP activity were compared. In the cell to which was introduced the SEAP reporter plasmid only having DRE as a sensor sequence, the SEAP activity increased by 4.5 times by the stimulus of TCDD.
# In contrast thereto, in the cell (Hepa 1c1c7-DRE-SEAP cell, hereinafter, referred to as an HeDS cell) to which was introduced the SEAP reporter plasmid having MMTV-DRE as a sensor sequence, the SEAP activity increased by 43.2 times by the stimulus of TCDD. […] This means that the sequence of MMTV strongly amplifies the response of DRE to dioxin. The high reactivity of MMTV-DRE enables a fast assay with low cost.
# as §1
# [3] = system: aryl hydrocarbon receptor (AhR); assay: fast DRESSA method: floating HeDS cells, SEAP protein activity in conditioned medium
# Experimental: as §1
# In order to perform the above-mentioned DRESSA method easily and economically in a short time, it is possible to simplify the sensing procedures as described above, as shown in FIG. 1a. In other words, 50 μl of the culture medium containing 1 μl of sample is filled into each well of a 96-well culture plate, and immediately, HeDS cells floated in the culture medium are added (total 100 μl) (S1).
# The conditioned medium is sampled three to four hours later (S2), and the SEAP protein activity is measured (S3). By using this scheme, it is possible to sense 1 pM of TCDD regarded as the sensing limit of the current method within four to five hours. Hereinafter, this method is referred to as a fast DRESSA method. The fast DRESSA method has no difference in sensing sensitivity from the DRESSA method.
structure (smiles),measurement,setting,value
"c1ccc2c(c1)cc1ccc3cccc4ccc2c1c34 [B[a]P, benzo[a]pyrene]",induction of SEAP protein activity compared with DMSO control,[1],remarkable induction
"O=c1cc(-c2ccccc2)oc2ccc3ccccc3c12 [βNF, β-naphthoflavone]",induction of SEAP protein activity compared with DMSO control,[1],remarkable induction
"Clc1cc2c(cc1Cl)Oc1cc(Cl)c(Cl)cc1O2 [TCDD, 2,3,7,8-tetrachlorodibenzo-p-dioxin]",time after addition at which significant increases in SEAP protein activity are observed,"[1]; 6 pM TCDD, DMSO control, traced up to 10 hours",four
same,sensing with a reduced number of cells,"[1]; 1 nM TCDD, 50 cells in one well of a 96-well plate",can be sensed sufficiently
same,concentration of TCDD possible to sense,"[1]; 5,000 HeDS cells",0.5 pM
same,concentration at which significant increases in SEAP protein activity were already observed,[1]; HeDS cells exposed to 0 to 1 pM TCDD,0.25 pM
same,concentration up to which SEAP protein activity increases dependent on the concentration,"[1]; HeDS cells, culture medium",up to 100 pM
same,time for which increases in SEAP protein activity continued before reaching equilibrium,"[1]; TCDD stimulation, traced up to 72 hours",48 h
same,increase in SEAP activity by the stimulus of TCDD,[2]; HeDS cell: SEAP reporter plasmid having MMTV-DRE as sensor sequence,43.2 times
same,increase in SEAP activity by the stimulus of TCDD,[2]; Hepa-1c1c7 cell with SEAP reporter plasmid only having DRE as sensor sequence,4.5 times
same,increase in SEAP activity by the stimulus of TCDD,[2]; cell with SEAP reporter plasmid only having MMTV as sensor sequence,did not increase
same,time after addition at which significant increases in SEAP protein activity were already observed,[3]; 6 pM TCDD,three
same,time after addition at which significant increases in SEAP protein activity were already observed,[3]; 1 nM TCDD,three
same,concentration of TCDD possible to sense,[3]; within four to five hours,1 pM
"Cc1ccc2cc3c(ccc4ccccc43)c3c2c1CC3 [3-MC, 3-methylcholanthrene]",induction of SEAP protein activity compared with DMSO control,[1],remarkable induction
